The values that follow come from patent publication US5741671A, “Isolation cloning and expression of transmembrane water channel aquaporin 1(AQP1)” (The Johns Hopkins University, priority 1995, dated 1998).

This experiment in a line: Stopped-flow osmotic water permeability of control liposomes. Type of experiment: biochemical. As to conditions: mercurial reagent 1 mM. As to the method: Purified AQP1 was stored overnight at 0° C. or frozen for several days at -80° C. prior to reconstitution. Reconstitution into proteoliposomes was carried out in a final volume of 1 ml containing 60-90 μg of purified AQP1 protein in chromatography buffer, 9 mg of bath-sonicated E. coli phospholipid, 1.25% (w/v) octyl glucoside, and 50 mM Tris-HCl (pH 7.5). The mixture was briefly blended on a vortex mixer and incubated for 20 minutes on ice. […] Protein and phospholipid were measured as described by Ambudkar & Maloney (J. Biol. Chem., 1986, 261:10079-10086).
Permeability measurements. Membrane permeability measurements (Pf) were measured by exposing AQP1 proteoliposomes or control liposomes to an osmotic gradient by rapid mixing with an equal volume of another solution containing buffer A plus sufficient sucrose to increase osmolality in the mixed solutions to a value 120% of that in the original solution. This was performed with a stopped-flow fluorometer (SF.17MV, Applied Photophysics, Leatherhead, U.K.) with a measured dead time of 0.7 ms. […] Extravesicular carboxyfluorescein fluorescence was completely quenched using anti-fluorescein antibody (Harris et al., 1990, Am. J. Physiol. 259:F366-F371). […]

As for `[Cl][Hg][Cl]` [HgCl2], the “effect on the Pf of control liposomes” value was “Neither pCMBS nor HgCl2 had any effect”.
